Test results: the supplement of paper PMC4858399
Structures can show the parent of a compound that is named as a salt.

Experiments:
Settings in all cases: exposure time 48 h
[1] = test system: Caenorhabditis elegans N2; assay: lowest effective concentration for larval growth inhibition (size below effect threshold); higher = less potent
Summary of the method: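 C. elegans N2 L1 larvae (50 per 96-well) were grown 48 h at 20°C in K-medium with killed bacteria, 1% DMSO and 0.5, 1, 5, 10, 50, 100 or 200 µM chemical. The Biosort measured per-worm extinction as size, and these were log-transformed into well means. The lowest effective concentration is the first dose where the plate-adjusted mean size drops under the 5.665 threshold and stays under it at higher doses.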

[2] = test system: Caenorhabditis elegans N2; assay: mean nematode size ln(EXT) after 48 h, plate-adjusted (DMSO control set to 6) (ln(EXT), control-adjusted); higher = larger nematodes / less growth inhibition
Summary of the method: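 A growth model removed debris from Biosort extinction readings taken on each worm. These worms were synchronised C. elegans N2 L1 larvae, 50 per well in 4–6 wells per treatment, grown for 48 h at 20°C in K-medium with killed OP50, 1% DMSO and 0.5–200 µM chemical. Readings were natural-logged and averaged by well to give mean size. On each plate, the vehicle control mean was subtracted and 6 was added.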

[3] = test system: Caenorhabditis elegans N2; assay: AC50 for larval growth inhibition (Hill fit); higher = less potent
Summary of the method: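 AC50 values come from a constrained Hill fit by weighted genetic-algorithm regression and are censored when out of range. The fit used only wells with at least 10 worms. Each well of a 96-well plate held 50 synchronised C. elegans N2 L1 larvae in K-medium with killed OP50, 1% DMSO and 0.5–200 µM chemical for 48 h at 20°C. A COPAS Biosort recorded each worm's size as extinction, which was log-transformed and averaged per well.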

SMILES	lowest effective concentration [1] [µM]	mean nematode size ln(EXT) (ln) ([2]; 0.5 µM)	mean nematode size ln(EXT) (ln) ([2]; 1 µM)	mean nematode size ln(EXT) (ln) ([2]; 5 µM)	mean nematode size ln(EXT) (ln) ([2]; 10 µM)	mean nematode size ln(EXT) (ln) ([2]; 50 µM)	mean nematode size ln(EXT) (ln) ([2]; 100 µM)	mean nematode size ln(EXT) (ln) ([2]; 200 µM)	AC50 for larval growth inhibition [3] [µM]
CCSC(=O)N(CC(C)C)CC(C)C [Butylate]	200	5.97	5.89	6.11	5.97	6.05	6.06	5.65	196
O=P(Oc1ccccc1)(Oc1ccccc1)Oc1ccccc1 [Triphenyl phosphate]	1	5.84	5.63	5.25	4.99	4.17	3.78	3.66	20.5
NS(=O)(=O)C(F)(F)C(F)(F)C(F)(F)C(F)(F)C(F)(F)C(F)(F)C(F)(F)C(F)(F)F [Perfluorooctanesulfonamide]	5	5.89	5.86	5.26	4.64	3.6	3.86	3.65	7.84
ClC1=C(Cl)C2(Cl)C3C(Cl)C(Cl)CC3C1(Cl)C2(Cl)Cl (stereo unspecified) [Chlordane]	5	5.98	5.93	5.24	4.63	3.8	3.81	3.48	8.58
CC[C@H](C)[C@@H](C(=O)O)n1sc2ccccc2c1=O	200	5.91	6.12	6.17	6.14	6.07	5.94	5.59	105
CCCCOC(=O)c1ccc(O)cc1 [Butylparaben]	200	5.84	5.8	5.75	5.78	5.96	5.68	5.19	103
CCC(CC)Nc1c([N+](=O)[O-])cc(C)c(C)c1[N+](=O)[O-] [Pendimethalin]	200	5.89	5.93	5.86	5.77	5.86	6.13	5.44	> 200
CCc1cccc(CC)c1N(COC)C(=O)CCl [Alachlor]	200	6.11	6.07	6.12	6.1	5.76	5.74	5.1	> 200
O=c1n(CC2CO2)c(=O)n(CC2CO2)c(=O)n1CC1CO1 (stereo unspecified) [Triglycidyl isocyanurate]	100	5.88	5.83	5.84	5.89	5.86	5.42	5.65	> 200
COCCOCCOCCOC [Triethylene glycol dimethyl ether]	200	5.75	6.01	5.91	5.91	5.72	5.81	5.64	> 200
CCCCOC(=O)[C@@H](C)Oc1ccc(Oc2ccc(C(F)(F)F)cn2)cc1 [Fluazifop-P-butyl]	100	6.18	6.51	6.31	6.37	6.22	5.52	4.99	98.7
Cc1nn(C)c(Oc2ccccc2)c1C=NOCc1ccc(C(=O)OC(C)(C)C)cc1 [(Z,E)-Fenpyroximate]	≤ 0.5	4.99	4.67	4.2	4.2	4.09	4.05	3.39	< 0.5
CCN(CC)C(=O)C(C)Oc1cccc2ccccc12 (stereo unspecified) [Napropamide]	100	5.97	5.95	5.93	6	6.01	5.62	5.43	97.3
CCN(CC)C(=S)SSC(=S)N(CC)CC [Disulfiram]	100	5.96	6	6.03	5.99	5.86	5.59	4.56	> 200
CS(=O)(=O)NC(=O)c1cc(Oc2ccc(C(F)(F)F)cc2Cl)ccc1[N+](=O)[O-] [Fomesafen]	200	5.93	5.95	5.95	5.95	5.89	6	5.52	180
CNc1cnn(-c2cccc(C(F)(F)F)c2)c(=O)c1Cl [Norflurazon]	200	5.99	5.96	6.11	6.19	6.05	5.79	5.15	104
NC(=O)N/N=C/c1ccc([N+](=O)[O-])o1 [5-Nitro-2-furaldehyde semicarbazone]	50	5.78	5.76	5.75	5.76	5.65	5.61	5.24	> 200
O=c1[nH]sc2ccccc12 [1,2-Benzisothiazolin-3-one]	100	5.72	5.71	5.73	5.74	5.69	5.5	5.48	> 200
COc1cc(Cl)c(OC)cc1Cl [Chloroneb]	200	5.75	5.71	5.58	5.7	5.96	5.97	5.47	> 200
COc1ccc2cc(S(=O)(=O)N[C@H](CC(=O)N[C@H](Cc3ccc(CN4[C@H](C)CCC[C@@H]4C)cc3)C(=O)N(C)C(C)C)c3ccc4c(c3)OCO4)ccc2c1	100	5.87	5.8	5.85	5.73	5.76	5.43	4.99	> 200
CCNc1nc(Cl)nc(NC(C)(C)C)n1 [Terbuthylazin]	50	6	5.99	5.96	5.95	5.65	5.58	5.22	> 200
O=C1C2CC=CCC2C(=O)N1SC(Cl)(Cl)Cl (stereo unspecified) [Captan]	50	5.8	5.75	5.73	5.84	5.45	4.27	3.67	85.6

SMILES	lowest effective concentration [1] [µM]	mean nematode size ln(EXT) (ln) ([2]; 0.5 µM)	mean nematode size ln(EXT) (ln) ([2]; 1 µM)	mean nematode size ln(EXT) (ln) ([2]; 5 µM)	mean nematode size ln(EXT) (ln) ([2]; 10 µM)	mean nematode size ln(EXT) (ln) ([2]; 50 µM)	mean nematode size ln(EXT) (ln) ([2]; 100 µM)	mean nematode size ln(EXT) (ln) ([2]; 200 µM)	AC50 for larval growth inhibition [3] [µM]
NC(=O)N(O)[C@@H]1C=C[C@H](Oc2cccc(Oc3ccc(F)cc3)c2)C1	100	5.9	6.14	6.17	6.17	5.89	5.05	4.86	72.9
CC/C(=N\OC/C=C/Cl)C1=C(O)CC(C2CCOCC2)CC1=O (stereo unspecified) [Tepraloxydim]	200	5.72	5.89	5.74	5.83	5.77	5.86	5.43	> 200
Oc1ccccc1-c1ccccc1 [2-Phenylphenol]	200	5.84	5.73	5.68	5.99	6.05	5.96	5.13	179
Cc1cc(NC(=O)C(=O)O)cc(C)c1Oc1ccc(O)c2c1CCC2	200	5.86	5.81	5.88	5.83	5.84	5.76	5.58	> 200
CN(C)c1ccc(Cc2ccc(N(C)C)cc2)cc1 [4,4'-methylenebis(N,N-dimethylaniline)]	100	5.92	5.8	5.81	5.86	5.74	5.17	5.04	66.3
CC(C)(O)c1cnn2c(-c3ccc(F)c(-c4c(F)cccc4C#N)c3)cnc2n1	100	5.88	5.79	5.71	5.8	5.82	5.66	5.05	> 200
CC1(C)CC/C(=C\c2ccc(Cl)cc2)C1(O)Cn1cncn1 (stereo unspecified) [Triticonazole]	200	5.82	5.72	6.07	5.84	5.91	5.68	5.25	120
CCC[CH2][Sn]([Cl])([CH2]CCC)[CH2]CCC [Tributyltin chloride]	≤ 0.5	4.58	4.74	3.7	3.56	3.85	3.97	3.48	< 0.5
CC(C)[C@H](C(=O)O[C@H](C#N)c1cccc(Oc2ccccc2)c1)c1ccc(Cl)cc1 [Esfenvalerate]	200	5.76	5.83	5.9	5.73	5.74	5.76	5.64	> 200
CCNS(=O)(=O)C(F)(F)C(F)(F)C(F)(F)C(F)(F)C(F)(F)C(F)(F)C(F)(F)C(F)(F)F [Sulfluramid]	5	5.81	5.84	5.48	5.23	4.32	4.08	3.24	31.4
CC(C)c1cccc(C(C)C)c1N1C(=O)c2ccc(O)cc2C1=O [5HPP-33]	50	5.78	5.75	5.75	5.76	5.62	4.88	4.78	58.6
Nc1ccn([C@@H]2O[C@H](CO)[C@@H](O)[C@@H]2O)c(=O)n1 [Cytarabine HCl]	200	5.96	5.87	5.95	6	5.89	6.03	5.47	> 200
c1ccc(Nc2ccccc2)cc1 [Diphenylamine]	10	5.86	5.75	5.83	4.11	3.96	3.87	4.5	7.4
CC(C)(c1cc(Br)c(O)c(Br)c1)c1cc(Br)c(O)c(Br)c1 [3,3',5,5'-Tetrabromobisphenol A]	10	5.84	5.92	5.93	5.56	4.75	4.36	4.27	28.3
CC(C)=CCC/C(C)=C\CO [cis-3,7-Dimethyl-2,6-octadien-1-ol]	200	5.8	5.76	5.79	5.75	5.78	5.69	5.63	> 200
CCN(CC)c1ccccc1 [N,N-Diethyl aniline]	200	6.08	6.09	5.9	6	5.98	6.05	4.83	186
CC(C)(OO)c1ccccc1 [Cumene hydroperoxide]	200	5.92	5.91	5.94	5.75	5.88	5.75	5.62	> 200
CCOP(=S)(OCC)SCCSCC [Disulfoton]	200	6.1	6.13	5.9	6.03	5.93	5.72	5.04	> 200
FC(F)C(F)(F)OCC(Cn1cncn1)c1ccc(Cl)cc1Cl (stereo unspecified) [Tetraconazole]	10	5.81	5.97	5.98	5.65	4.91	4.36	4.07	48.5
CCc1ccc(O)c(C(C)(C)C)c1 [2-tert-Butyl-4-ethylphenol]	50	5.77	5.75	5.72	5.86	5.45	5.58	4.88	> 200
CCCN(CCC)c1c([N+](=O)[O-])cc(C(F)(F)F)cc1[N+](=O)[O-] [Trifluralin]	200	5.85	6.06	6.05	6	5.03	6.06	3.63	53
c1ccc2cc3ccccc3cc2c1 [Anthracene]	5	5.97	5.76	4.34	3.78	4.06	4.36	4.12	2.12
